{"source": "patent US10183011B2", "about": "“Anti-depression compounds” (Board of Regents of the University of Texas System, priority 2009, dated 2019)", "key": {"[1]": {"system": "dopaminergic neurons in C. elegans", "experiment": "MPP+ toxicity to dopaminergic neurons in C. elegans", "type": "in vivo", "conditions": "for protection of dopaminergic neurons from MPP+: 10 μM, 5 mM MPP+ for 40 hrs", "experimental": "FIG. 31. Neuroprotective efficacy of P7C3 and P7C3A20 for MPP^+ toxicity to dopaminergic neurons in C. elegans. Worms were treated with 5 mM MPP^+ for 40 hrs, with pre-incubation for 30 minutes with different concentrations of test compounds or vehicle. […] By contrast, GFP expression was lost after 40 hrs of MPP^+ exposure (unfilled arrow). […] 20 worms were analyzed per group, and each group was performed in triplicate. Data are expressed as mean±SEM.\nGenes, metabolic signaling pathways, neurotransmitters and receptor pharmacology are highly conserved between C. elegans and vertebrates, and exposure of C. elegans to MPP^+ has been reported to selectively kill dopaminergic neurons and impair mobility. To investigate the neuroprotective efficacy of P7C3A20, P7C3 and Dimebon from MPP^+ toxicity in C. elegans, we monitored dopaminergic cell death in a transgenic strain of worms in which dopaminergic neurons fluoresce green by virtue of GFP expression driven by the dopaminergic neuron-specific promoter dat-1. […] Cephalic sensilla dopaminergic dendrites were observed under 40× magnification (AMG, Evos fl microscope), and GFP signal was followed from the nerve ring to the tip of the nose, following established protocols. If any part of a dendrite was absent, as evidenced by loss of GFP signal, it was counted as degraded. All analyses were performed blind to treatment group.\nSynchronized L1 larvae were plated into each well of a 12-well plate (approximately 400 larvae per well) containing PBS, Vehicle or compounds, with or without 5 mM MPP^+ iodide (Sigma) freshly diluted in PBS. DMSO was used as vehicle (VEH) and the concentration in treatment groups was maintained below 1%. The assay solution ([…]) was incubated for 40 hrs at 20 degrees Celsius. The worms were then washed in dH2O and supernatant was aspirated. To examine dopaminergic neuron toxicity, worms were anesthetized (0.1% tricaine, 0.01% tetramizole) for 5 min and then transferred to microscope slides and coverslipped. Pictures were taken at 40× magnification (AMG, Evos fl microscope). Each experiment was conducted in triplicate with 10-20 worms counted per condition. For quantification, investigators were blind to treatment condition. Quantification was done by observing all four cephalic sensilla (CEP) dendrites, per standard protocol. Briefly, GFP fluorescence was visualized from the nerve ring to the tip of the nose, and if any portion of a dendrite was absent then it was counted as being degenerated."}, "G93A-SOD1 mutant mice": {"system": "G93A-SOD1 mutant mice", "experiment": "Walking gait (pawprint analysis) in G93A-SOD1 mice, treatment from day 80", "type": "in vivo, mouse", "conditions": "20 mg/kg/day from day 80", "experimental": "FIG. 36A and FIG. 36B. P7C3A20 preserves walking gait when administered at the time of disease onset to G93A-SOD1 mutant mice. […] Front and back stride were collected as a straight line from back paw print to the following paw print. Back-front distance was collected as a straight line from back paw print to the corresponding front paw print. 20 measurements (10 on each side) for each parameter were measured per mouse, and 20 mice per group were evaluated at 90 and 118 day time points. All measurements were conducted blind to treatment group, and the student's t test was used for statistical comparison of a treatment group to its matched vehicle group. FIG. 36B—At 90 days, there were no differences between any groups in back stride, front stride and back-front distance. […] Back stride and front stride were preserved to near-normal levels in P7C3A20 treated mice on day 118. By day 132, P7C3 and Dimebon treated mice were too sick to participate in the task. At this time point, P7C3A20 treated mice continued to show normalized back stride and front stride levels.\nAnalysis of walking gait offers a second means of assessing motor limb strength and coordination in rodent models of ALS. We conducted this analysis in the same mice used for the accelerating rotarod task, at three time points: 90, 118 and 132 days. Briefly, the front paws of each test mouse were dipped in orange tempera paint, and the back paws in blue tempera paint. […] Key parameters of the pawprints were then manually measured, as described in Methods. […]\nFive measurements were taken: front and back stride, front and back width, and front to back distance, as described in Current Protocols for Neuroscience. […] Width from paw print was measured by drawing a line at a 90 degree angle from the line connecting the stride previous and the paw being analyzed. The distance was recorded as length of line from paw to the stride line opposite the paw print. […]\nPawprints were recorded at 90, 118 and 132 days of age. […]"}}, "data": [{"smiles": "Cc1ccc2c(c1)c1c(n2CCc2ccc(C)nc2)CCN(C)C1", "note": "[Dimebon, 2,3,4,5-Tetrahydro-2,8-dimethyl-5-(2-(6-methyl-3-pyridyl)ethyl)-1H-pyrido(4,3-b)indole, reference compound]", "values": [{"measurement": "protection of dopaminergic neurons from MPP+", "setting": "[1]", "result": "failed to protect dopaminergic neurons"}, {"measurement": "walking gait (back stride, front stride, back-front distance)", "setting": "G93A-SOD1 mutant mice", "result": "none of these parameters in the walking gait analysis at 20 mg/kg/day were significantly improved"}]}, {"smiles": "COc1cccc(NCC(F)Cn2c3ccc(Br)cc3c3cc(Br)ccc32)c1", "note": "(centres unmarked) [Example P7C3A20, N-(3-(3,6-dibromo-9H-carbazol-9-yl)-2-fluoropropyl)-3-methoxyaniline]", "values": [{"measurement": "onset of neuroprotective efficacy", "setting": "[1]; 0.1 μM", "result": 30, "unit": "%"}, {"measurement": "protection of dopaminergic neurons from MPP+", "setting": "[1]", "result": 80, "unit": "%"}, {"measurement": "walking gait (back stride, front stride, back-front distance)", "setting": "G93A-SOD1 mutant mice", "result": "helps preserve walking gait"}]}, {"smiles": "OC(CNc1ccccc1)Cn1c2ccc(Br)cc2c2cc(Br)ccc21", "note": "(centres unmarked) [Example P7C3]", "values": [{"measurement": "onset of neuroprotective efficacy", "setting": "[1]; 1.0 μM", "result": 35, "unit": "%"}, {"measurement": "protection of dopaminergic neurons from MPP+", "setting": "[1]", "result": "about 50%"}, {"measurement": "walking gait (back stride, front stride, back-front distance)", "setting": "G93A-SOD1 mutant mice", "result": "none of these parameters in the walking gait analysis at 20 mg/kg/day were significantly improved"}]}]}
